These compounds were tested on SMN2 promoter (assay: SMN2 promoter assay (β-lactamase reporter) in NSC-34 cells). Settings: Mus musculus, SMN2 promoter driving β-lactamase, 12 point dose curve, average of 3-6 dose curve experiments.
Type: cell-based, mouse
From the text: All compounds were screened using an in vitro based SMN2 promoter assay. We used NSC-34 cells, a hybrid cell line between mouse spinal cord cells and mouse neuroblastoma cells. NSC-34 cells harbor an expression plasmid containing a 3.4 kb promoter fragment of the SMN2 gene driving β-lactamase expression.
[…] […] CCF2-AM diffuses across the plasma membrane and is converted into an active β-lactamase substrate by cytoplasmic esterase. […] The fold induction is proportional to the extent of β-lactamase produced and in turn proportional to SMN2 promoter activation for a given compound relative to vehicle (DMSO) control. […] These values are used to rank activities of the compounds and derive structure activity relationship.

Row | Compound | EC50
1 | Cc1ccc(COc2cccc3nc(N)nc(N)c23)cc1 [Example 1, 5-(4-Methylbenzyloxy)quinazoline-2,4-diamine] | < 1 µM
2 | Nc1nc(N)c2c(OCc3ccc(Cl)cc3)cccc2n1 [Example 2, 5-(4-Chlorobenzyloxy)quinazoline-2,4-diamine] | < 1 µM
3 | Nc1nc(N)c2c(OCC(F)(F)F)cccc2n1 [Example 3, 5-(2,2,2-Trifluoroethoxy)quinazoline-2,4-diamine] | 1 to 5 µM
4 | Nc1nc(N)c2c(OCc3ccc(I)cc3)cccc2n1 [Example 4, 5-(4-Iodobenzyloxy)quinazoline-2,4-diamine] | < 1 µM
5 | Nc1nc(N)c2c(OCc3cccc(Cl)c3)cccc2n1 [Example 5, 5-(3-Chlorobenzyloxy)quinazoline-2,4-diamine] | < 1 µM
6 | Nc1nc(N)c2c(OCc3ccccc3Cl)cccc2n1 [Example 6, 5-(2-Chlorobenzyloxy)quinazoline-2,4-diamine] | < 1 µM
7 | Cc1ccccc1COc1cccc2nc(N)nc(N)c12 [Example 7, 5-(2-Methylbenzyloxy)quinazoline-2,4-diamine] | < 1 µM
8 | Cc1ccc(CCOc2cccc3nc(N)nc(N)c23)cc1 [Example 8, 5-(2-p-Tolylethoxy)quinazoline-2,4-diamine] | < 1 µM
9 | Nc1nc(N)c2c(OCCc3ccc(Cl)cc3)cccc2n1 [Example 9, 5-[2-(4-Chlorophenyl)ethoxy]quinazoline-2,4-diamine] | < 1 µM
10 | Cc1cccc(COc2cccc3nc(N)nc(N)c23)c1 [Example 10, 5-(3-Methylbenzyloxy)quinazoline-2,4-diamine] | < 1 µM
11 | Nc1nc(N)c2c(OCc3cccnc3)cccc2n1 [Example 11, 5-(Pyridin-3-ylmethoxy)quinazoline-2,4-diamine] | < 1 µM
12 | CC(Oc1cccc2nc(N)nc(N)c12)c1ccccc1 (centres unmarked) [Example 12, 5-(1-Phenylethoxy)quinazoline-2,4-diamine] | < 1 µM
13 | Nc1nc(N)c2c(OCC3CC=CCC3)cccc2n1 (centres unmarked) [Example 13, 5-(Cyclohex-3-enylmethoxy)quinazoline-2,4-diamine] | < 1 µM
14 | Nc1nc(N)c2c(OCC3CCC3)cccc2n1 [Example 14, 5-(Cyclobutylmethoxy)quinazoline-2,4-diamine] | < 1 µM
15 | COCCOc1cccc2nc(N)nc(N)c12 [Example 15, 5-(2-Methoxyethoxy)quinazoline-2,4-diamine] | < 1 µM
16 | Nc1nc(N)c2c(OCC3CC3)cccc2n1 [Example 16, 5-(Cyclopropylmethoxy)quinazoline-2,4-diamine] | < 1 µM

Row | Compound | EC50
17 | Nc1nc(N)c2c(OCC3CCCCC3)cccc2n1 [Example 17, 5-(Cyclohexylmethoxy)quinazoline-2,4-diamine] | 1 to 5 µM
18 | Nc1nc(N)c2c(OCC3CCCC3)cccc2n1 [Example 18, 5-(Cyclopentylmethoxy)quinazoline-2,4-diamine] | < 1 µM
19 | C=CCOCCOc1cccc2nc(N)nc(N)c12 [Example 19, 5-(2-Allyloxyethoxy)quinazoline-2,4-diamine] | < 1 µM
20 | CN1CCCC(COc2cccc3nc(N)nc(N)c23)C1 (centres unmarked) [Example 20, 5-(1-Methylpiperidin-3-ylmethoxy)quinazoline-2,4-diamine] | < 1 µM
21 | Nc1nc(N)c2c(OCc3ccco3)cccc2n1 [Example 21, 5-(Furan-2-ylmethoxy)quinazoline-2,4-diamine] | < 1 µM
22 | Nc1nc(N)c2c(OCc3cccs3)cccc2n1 [Example 22, 5-(Thiophen-2-ylmethoxy)quinazoline-2,4-diamine] | < 1 µM
23 | Cc1ccc(Cc2cccc3nc(N)nc(N)c23)cc1 [Example 23, 5-(4-Methylbenzyl)quinazoline-2,4-diamine] | 1 to 5 µM
24 | Nc1nc(N)c2c(Cc3ccccc3)cccc2n1 [Example 24, 5-Benzylquinazoline-2,4-diamine] | < 1 µM
25 | Nc1nc(N)c2c(Cc3ccc(Cl)cc3)cccc2n1 [Example 25, 5-(4-Chlorobenzyl)Quinazoline-2,4-Diamine] | < 1 µM
26 | COc1ccc(Cc2cccc3nc(N)nc(N)c23)cc1 [Example 26, 5-(4-Methoxybenzyl)Quinazoline-2,4-Diamine] | < 1 µM
27 | Nc1nc(N)c2c(OCCCc3ccc(Cl)cc3)cccc2n1 [Example 27, 5-[3-(4-Chlorophenyl)propoxy]quinazoline-2,4-diamine] | < 1 µM
28 | CC(Oc1cccc2nc(N)nc(N)c12)c1cccc(Cl)c1 (centres unmarked) [Example 28, 5-[1-(3-Chlorophenyl)ethoxy]quinazoline-2,4-diamine] | < 1 µM
29 | Nc1nc(N)c2c(SCc3ccc(Cl)cc3)cccc2n1 [Example 29, 5-(4-Chlorobenzylsulfanyl)quinazoline-2,4-diamine] | < 1 µM
30 | Cc1ccc(C#Cc2cccc3nc(N)nc(N)c23)cc1 [Example 30, 5-p-Tolylethynylquinazoline-2,4-diamine] | < 1 µM
31 | Nc1nc(N)c2c(S(=O)(=O)c3ccc(Cl)cc3)cccc2n1 [Example 31, 5-(4-Chlorobenzenesulfonyl)quinazoline-2,4-diamine] | 1 to 5 µM
32 | CC(=O)Nc1nc(NC(C)=O)c2c(OCc3ccc(Cl)cc3)cccc2n1 [Example 32, N-[2-Acetylamino-5-(4-chlorobenzyloxy)quinazolin-4-yl]acetamide] | 5 to 10 µM

Second part, the compound after the results:

Row | EC50 | Compound
33 | 1 to 5 µM | CC1=NOC(COc2cccc3nc(N)nc(N)c23)C1 (centres unmarked) [Example 33, 5-(3-Methyl-4,5-dihydroisoxazol-5-ylmethoxy)quinazoline-2,4-diamine]
34 | < 1 µM | Nc1nc(N)c2c(OCc3ccoc3)cccc2n1 [Example 34, 5-(Furan-3-ylmethoxy)quinazoline-2,4-diamine]
35 | < 1 µM | Nc1nc(N)c2c(OCc3ccccc3)cccc2n1 [Example 35, 5-Benzyloxyquinazoline-2,4-diamine]
36 | < 1 µM | Nc1nc(N)c2c(OCc3ccccn3)cccc2n1 [Example 36, 5-(Pyridin-2-ylmethoxy)Quinazoline-2,4-diamine]
37 | < 1 µM | Nc1nc(N)c2c(OCCc3ccccc3)cccc2n1 [Example 37, 5-Phenethyloxyquinazoline-2,4-diamine]
38 | < 1 µM | CCCCCCCCOc1cccc2nc(N)nc(N)c12 [Example 38, 5-Octyloxyquinazoline-2,4-diamine]
39 | < 1 µM | Nc1nc(N)c2c(OC3Cc4ccccc4C3)cccc2n1 [Example 40, 5-(Indan-2-yloxy)quinazoline-2,4-diamine]
40 | 5 to 10 µM | Nc1nc(N)c2c(O[C@H]3CCc4ccccc43)cccc2n1 [Example 41, 5-((S)-Indan-1-yloxy)quinazoline-2,4-diamine]
41 | < 1 µM | C[C@H](Oc1cccc2nc(N)nc(N)c12)c1ccccc1 [Example 42, 5-((S)-1-Phenylethoxy)quinazoline-2,4-diamine]
42 | < 1 µM | Nc1nc(N)c2c(COc3ccc(Cl)cc3)cccc2n1 [Example 43, 5-(4-Chlorophenoxymethyl)quinazoline-2,4-diamine]
43 | < 1 µM | Cc1ccc(OCc2cccc3nc(N)nc(N)c23)cc1 [Example 44, 5-p-Tolyloxymethylquinazoline-2,4-diamine]
44 | < 1 µM | Nc1nc(N)c2c(COc3ccc(F)cc3)cccc2n1 [Example 45, 5-(4-Fluorophenoxymethyl)quinazoline-2,4-diamine]
45 | < 1 µM | Nc1nc(N)c2c(Cc3ccsc3)cccc2n1 [Example 46, 5-Thiophen-3-ylmethylquinazoline-2,4-diamine]
46 | < 1 µM | Nc1nc(N)c2c(OCc3ccsc3)cccc2n1 [Example 47, 5-(Thiophen-3-ylmethoxy)quinazoline-2,4-diamine]
47 | < 1 µM | CC(Oc1cccc2nc(N)nc(N)c12)c1ccncc1 (centres unmarked) [Example 48, 5-(1-Pyridin-4-ylethoxy)quinazoline-2,4-diamine]
48 | < 1 µM | CC(Oc1cccc2nc(N)nc(N)c12)c1ccc(Cl)cc1 (centres unmarked) [Example 49, 5-[1-(4-Chlorophenyl)ethoxy]quinazoline-2,4-diamine]
49 | < 1 µM | CCC(Oc1cccc2nc(N)nc(N)c12)c1ccc(Cl)cc1 (centres unmarked) [Example 50, 5-[1-(4-Chlorophenyl)propoxy]quinazoline-2,4-diamine]
50 | 5 to 10 µM | CC(C)(C)C(Oc1cccc2nc(N)nc(N)c12)c1ccc(Cl)cc1 (centres unmarked) [Example 51, 5-[1-(4-Chlorophenyl)-2,2-dimethylpropoxy]quinazoline-2,4-diamine]
51 | < 1 µM | Nc1nc(N)c2c(OC(c3ccccc3)c3ccccc3)cccc2n1 [Example 52, 5-Benzhydryloxyquinazoline-2,4-diamine]
52 | < 1 µM | Cc1cc(COc2cccc3nc(N)nc(N)c23)no1 [Example 53, 5-(5-Methylisoxazol-3-ylmethoxy)quinazoline-2,4-diamine]
53 | < 1 µM | Nc1nc(N)c2c(OCc3ccc4c(c3)OCO4)cccc2n1 [Example 54, 5-(Benzo[1,3]dioxol-5-ylmethoxy)quinazoline-2,4-diamine]
54 | < 1 µM | Nc1nc(N)c2c(OCC3CCCCO3)cccc2n1 (centres unmarked) [Example 55, 5-(Tetrahydropyran-2-ylmethoxy)quinazoline-2,4-diamine]
55 | < 1 µM | C[C@@H](Oc1cccc2nc(N)nc(N)c12)c1ccccc1 [Example 56, 5-((R)-1-Phenylethoxy)quinazoline-2,4-diamine]

Same assay, conditions: SMN2 promoter driving β-lactamase, 12 point dose curve, average of 3-6 dose curve experiments

Row | Compound | EC50
56 | 5-((1S,2R,5S)-6,6-Dimethylbieyclo[3.1.1]hept-2-ylmethoxy)quinazoline-2,4-diamine [Example 130] | < 1 µM
57 | 5-[1-(4-fluorophenyl)-1-methyl-ethoxy]-quinazoline-2,4-diamine [Example 101] | < 1 µM

Second part, the compound after the results:

Row | EC50 | Compound
58 | < 1 µM | 2-(2,4-Diaminoquinazolin-5-yloxy)-1-(4-fluorophenyl)ethanol [Example 167]
59 | < 1 µM | 5-(3-Fluorobenzyloxy)quinazoline-2,4-diamine [Example 102]

Source: patent US9067897B2, “2,4-Diaminoquinazolines for spinal muscular atrophy” (Families of Spinal Muscular Atrophy, priority 2004, dated 2015)
